Earlier results as cited in patent US7795231B2, “Concentrated aqueous azalide formulations” (Insite Vision Incorporated, priority 2007, dated 2010).
Where a name gives a salt, the structure may show the parent alone.

## CC[C@H]1OC(=O)[C@H](C)[C@@H](O[C@H]2C[C@@](C)(OC)[C@@H](O)[C@H](C)O2)[C@H](C)[C@@H](O[C@@H]2O[C@H](C)C[C@H](N(C)C)[C@H]2O)[C@](C)(O)C[C@@H](C)CN(C)[C@H](C)[C@@H](O)[C@]1(C)O [azithromycin dihydrochloride]
  water solubility (in words): good water solubility
